# Measurements: the PolyMetriX glass transition set
# ± gives the standard deviation of the reports.
row,glass transition temperature [°C],Compound
1,3.00,*OC(C)CCOC(=O)C(CCCCCCOc1ccc(/N=C/c2ccc([N+](=O)[O-])cc2)cc1)C(*)=O (repeat unit)
2,127.00,*CCN(CCOC(=O)c1ccc([Si](C)(C)c2ccc(C(=O)O*)cc2)cc1)c1ccc(/C=C/c2ccc([N+](=O)[O-])cc2)cc1 (repeat unit)
3,152.42 ± 6.3,*Oc1ccc(C(C)(C)c2ccc(OC(*)=O)cc2)cc1 (repeat unit) [Poly(bisphenol A carbonate)]
4,50.00,*CCCCCCCCCOC(=O)c1ccc2cc(C(=O)O*)ccc2c1 (repeat unit)
5,212.50,*CC(*)c1cc(-c2ccc(C(=O)OC(C)CC)cc2)ccc1-c1ccc(C(=O)OC(C)CC)cc1 (repeat unit)
6,208.00,*Nc1ccc(C(C)(C)c2cccc(C(C)(C)c3ccc(NC(=C(C#N)C#N)c4ccc(C(*)=C(C#N)C#N)cc4)cc3)c2)cc1 (repeat unit)
7,190.00,*c1ccc(Oc2ccc(C(=O)c3cccc(C(=O)c4ccc(Oc5ccc(-c6cc(*)n(-c7ccccc7)n6)cc5)cc4)c3)cc2)cc1 (repeat unit)
8,0.00,*CCCCCCCC(=O)OCCOC(=O)CCCCCCCC1OCC2(COC(*)OC2)CO1 (repeat unit)
9,226.00,*Oc1ccc(-c2ccc(Oc3ccc(*)cc3)c3ccccc23)c2ccccc12 (repeat unit)
10,208.00,*c1ccc(CCc2ccccc2N2C(=O)C(=O)N(c3ccc(Oc4ccc(N5C(=O)C(=O)N(*)C5=O)cc4)cc3)C2=O)cc1 (repeat unit)
11,-22.00,*CCCCCCOC(=O)OCCCCCCCCCCOC(=O)OCCCCCCOc1ccc(Oc2ccc(O*)cc2)cc1 (repeat unit)
12,208.00,*/C(=C/c1cc(OC)c(/C=C(\c2ccc(F)cc2)c2ccc3cc(*)ccc3c2)cc1OC)c1ccc(F)cc1 (repeat unit)
13,166.00,*Oc1ccc(Oc2ccc(C(=O)c3ccc(C(=O)c4ccc(*)cc4)cc3)cc2)cc1-c1ccccc1 (repeat unit)
14,76.00,*CC(O)CN(C)S(=O)(=O)c1cccc(S(=O)(=O)N(C)CC(O)COc2ccc(C(C)(C)c3ccc(O*)cc3)cc2)c1 (repeat unit)
15,34.90,*C/C=C/C[Si](*)(c1ccccc1)c1ccccc1 (repeat unit)
16,355.00,*C(=O)Nc1ccc(C(c2ccc(NC(=O)c3ccc(N4C(=O)c5ccc(*)cc5C4=O)cc3C)cc2)(C(F)(F)F)C(F)(F)F)cc1 (repeat unit)
17,90.00,*c1ccc(-c2ccc3c(c2)C(CCCCCCC#N)(CCCCCCC#N)c2cc(*)ccc2-3)cc1 (repeat unit)
18,163.00,*/C(=C(/c1ccc(*)cc1)c1ccc(Oc2ccccc2)cc1)c1ccc(Oc2ccccc2)cc1 (repeat unit)
19,186.00,*Oc1ccc(S(=O)(=O)c2ccc(Oc3ccc(/C=C4\CCCC/C(=C\c5ccc(*)cc5)C4=O)cc3)cc2)cc1 (repeat unit)
20,198.00,*c1ccc(CCc2ccccc2N2C(=O)C(=O)N(c3ccc(Cc4ccc(N5C(=O)C(=O)N(*)C5=O)cc4)cc3)C2=O)cc1 (repeat unit)
21,230.00,*Nc1cc(NC(=O)c2ccc(C(*)=O)cc2)cc(-c2nnc(-c3ccccn3)o2)c1 (repeat unit)
22,178.00,*Nc1cc(NC(=O)Nc2ccc(Cc3ccc(NC(*)=O)cc3)cc2)cc(C(=O)Nc2cccc3c2C(=O)c2ccccc2C3=O)c1 (repeat unit)
23,160.00,*Oc1ccc(NC(=O)CCCCCCCCC(=O)Nc2ccc(*)cc2)cc1 (repeat unit)
24,143.00,*CC#CC#CCOC(=O)c1ccc(C(=O)O*)cc1 (repeat unit)
25,47.00,*OC(=O)CNC(=O)CNC(=O)CCCCCCCCC(=O)NCC(=O)NCC(=O)OC1COC2C(*)COC12 (repeat unit)
26,283.00,*c1ccc(S(=O)(=O)c2ccc(N3C(=O)c4ccc(Oc5ccc(Oc6ccc7c(c6)C(=O)N(*)C7=O)cc5)cc4C3=O)cc2)cc1 (repeat unit)
27,168.00,*Oc1ccc(C2(c3ccc(OC(*)=S)cc3)CCC(C)CC2)cc1 (repeat unit)
28,3.90,*CCCCCCCCCCCOc1ccc(CCc2ccc(O*)cc2C)cc1 (repeat unit)

# The remaining lines, values behind:
row,Compound,glass transition temperature [°C]
1,*c1cccc(N2C(=O)c3ccc(Oc4cc5ccccc5cc4Oc4ccc5c(c4)C(=O)N(*)C5=O)cc3C2=O)c1 (repeat unit),237.00
2,*c1ccc2c(c1)C(=O)N(c1c(C)cc(C)c(N3C(=O)c4ccc(C(*)(C(F)(F)F)C(F)(F)F)cc4C3=O)c1C)C2=O (repeat unit),377.00
3,*c1cc(N2C(=O)c3ccc(P(=O)(c4ccccc4)c4ccc5c(c4)C(=O)N(*)C5=O)cc3C2=O)cc(C(F)(F)F)c1 (repeat unit),317.00
4,*O[Si](C=C)(C=C)O[Si](C)(C)c1ccc([Si](*)(C)C)cc1 (repeat unit),-71.00
5,*CC(*)(C)C(=O)OC12CC3CC(CC(C3)C1)C2 (repeat unit),183.00
6,*OC(=O)OC1COC2C(*)COC12 (repeat unit),140.00
7,*OC(F)(F)C(F)(F)C(F)(F)C(*)(F)F (repeat unit),-55.00
8,*C(=O)c1ccc2c(c1)C(=O)N(c1cccc(Nc3nc(Nc4cccc(N5C(=O)c6ccc(*)cc6C5=O)c4)nc(N(C)C)n3)c1)C2=O (repeat unit),294.00
9,*CC(C)(N=C=O)C1C(=O)OC(=O)C1* (repeat unit),100.00
10,*CCCCc1ccc(-c2c(-c3ccccc3)cc(-c3ccc(-c4cc(-c5ccccc5)c(-c5ccc(*)cc5)c(-c5ccccc5)c4-c4ccccc4)cc3)c(-c3ccccc3)c2-c2ccccc2)cc1 (repeat unit),205.00
11,*C(=O)c1ccc2c(c1)C(=O)N(c1cccc(P(=O)(c3ccc(Oc4ccc(C56CC7CC(CC(C7)C5)C6)cc4)cc3)c3cccc(N4C(=O)c5ccc(*)cc5C4=O)c3)c1)C2=O (repeat unit),305.00
12,*CC(*)(C)C(=O)OCC1COC(CP(=O)(OCC)OCC)O1 (repeat unit),115.00
13,*CC(C)(CC)C(=O)O* (repeat unit),-9.00
14,*CC(*)OC(=O)c1cccc(C)c1 (repeat unit),49.00
15,*CC(*)C(=O)OC1CCCCCCCCCCC1 (repeat unit),37.00
16,*CC(*)OC(=O)c1ccc(OCC)cc1 (repeat unit),70.00
17,*c1cccc(-c2nc3cc(-c4ccc5nc(-c6ccccc6)c(*)nc5c4)ccc3nc2-c2ccccc2)c1 (repeat unit),320.00
18,*CCCC(Cl)C(*)Cl (repeat unit),42.00
19,*c1ccc(-c2ccc(-c3c(-c4ccccc4)nc4ccc(Oc5ccc6nc(-c7ccccc7)c(*)c(-c7ccccc7)c6c5)cc4c3-c3ccccc3)cc2)cc1 (repeat unit),330.00
20,*/C=C/c1cc(OCCC(C)CCCC(C)C)c(*)cc1OC (repeat unit),54.50

row,Compound,glass transition temperature [°C]
1,*c1c(C)cc(C(c2cc(C(F)(F)F)cc(C(F)(F)F)c2)c2cc(C)c(N3C(=O)c4ccc(-c5ccc6c(c5)C(=O)N(*)C6=O)cc4C3=O)c(C)c2)cc1C (repeat unit),317.40
2,*CCCCCCNC(=O)CC(=O)N* (repeat unit),50.00
3,*c1ccc(Oc2ccc(Oc3ccc(P(=O)(c4ccccc4)c4ccc(Oc5ccc(Oc6ccc(-c7nc8cc9sc(*)nc9cc8s7)cc6)cc5)cc4)cc3)cc2)cc1 (repeat unit),255.00
4,*CC(*)C(=O)OCC(F)(F)C(F)(F)OC(F)(F)C(F)(F)F (repeat unit),-49.00
5,*CCCN(*)C(C)=O (repeat unit),30.00
6,*C(=O)Nc1cccc(S(=O)(=O)c2cccc(NC(=O)c3ccc4c(c3)C(=O)N(c3cc(-c5nnc(-c6ccccn6)o5)cc(N5C(=O)c6ccc(*)cc6C5=O)c3)C4=O)c2)c1 (repeat unit),173.00
7,*O[Si](*)(CC)CC (repeat unit),-139.00
8,*Oc1ccc(-c2ccc(-c3ccc(Oc4ccc(C(c5ccc(*)cc5)(C(F)(F)F)C(F)(F)F)cc4)c(C(F)(F)F)c3)cc2)cc1C(F)(F)F (repeat unit),207.50
9,*CC(O)CN(*)c1cc(C)cc(C)c1 (repeat unit),80.00
10,*CCC(C)C(C)CCNC(=O)c1cc(C(=O)N*)cc(C(C)(C)C)c1 (repeat unit),173.00
11,*CC(OC(=O)C(Cc1ccccc1)NC(=O)OC(C)(C)C)C(COC(=O)O*)OC(=O)C(Cc1ccccc1)NC(=O)OC(C)(C)C (repeat unit),82.40
12,*c1ccc2c(c1)C(=O)N(c1ccc(Oc3ccc(C(C)(C)c4ccc(Oc5ccc(N6C(=O)c7ccc(C(*)(C(F)(F)F)C(F)(F)F)cc7C6=O)cc5)cc4)cc3)cc1)C2=O (repeat unit),246.70 ± 3.3
13,*O[Si](C)(C)c1ccc([Si](C)(C)Oc2c(C)cc(-c3cc(C)c(*)c(C)c3)cc2C)cc1 (repeat unit),67.00
14,*Sc1ccc(Sc2ccc(Sc3ccc(P(=O)(c4ccccc4)c4ccc(*)cc4)cc3)cc2)cc1 (repeat unit),175.00
15,*Oc1ccc(S(=O)(=O)c2ccc(Oc3ccc4c(=O)n5c6cc(-c7ccc8c(c7)nc7c9ccc(*)c%10cccc(c(=O)n87)c%109)ccc6nc5c5cccc3c45)cc2)cc1 (repeat unit),415.00
16,*O[Si](*)(C)CCCCC (repeat unit),-112.00
17,*c1ccc(Oc2ccc(C(C)(C)c3ccc(Oc4ccc(-c5nnc(*)n5-c5ccccc5)cc4)cc3)cc2)cc1 (repeat unit),207.00
18,*COC(=O)OCC1OC(OCC)(OCC)OC1* (repeat unit),10.80
19,*/C=C/c1cc(OCC2CC3CC2C2CCCC32)c(*)cc1OC (repeat unit),174.00
